System: ketamine schizophrenia model rats (大鼠分裂症氯胺酮模型大鼠)
Experiment: Social interaction test in ketamine-induced schizophrenia model rats (total activity time, aggressive and non-aggressive behaviour)
Format: in vivo, rat
Details: n=20, mean±SD
[1] = day of drug withdrawal, after 7 days i.m. dosing (compounds A-E 1 mg/kg; risperidone 2 mg/kg), ketamine model Wistar rats, 7 min test, * P<0.05, ** P<0.01 vs model

SMILES: Cc1nc2n(c(=O)c1CCN1CCC(c3noc4cc(F)ccc34)CC1)CCCC2 [利培酮]
- total activity time (7 days after drug withdrawal, after 7 days i.m. dosing (compounds A-E 1 mg/kg; risperidone 2 mg/kg), ketamine model Wistar rats, 7 min test, * P<0.05, ** P<0.01 vs model): 18.2±6.3
- total activity time (before dosing (baseline), male Wistar rats, ketamine 30 mg/kg i.p. 5 days): 13.9±2.9
- number of aggressive behaviours [1]: 3.1±1.5
- number of non-aggressive behaviours [1]: 6.3±3.9
- total activity time [1]: 23.2±6.1

— patent publication CN103800339A, “一类治疗精神分裂症的化合物及其用途” (Individual, priority 2012, dated 2014)
